In ChEMBL document CHEMBL1125816, “[123I]-2 beta-carbomethoxy-3 beta-(4-iodophenyl)tropane: high-affinity SPECT radiotracer of monoamine reuptake sites in brain” (J Med Chem, 1991) one finds IC50 data, which are given here for 2 compounds.

The test addresses Sodium-dependent serotonin transporter (Rattus norvegicus, UniProt P31652). Kind of test: Compound was tested for binding affinity to Serotonin transporter sites in homogenates prepared from rat cortical membranes using [3H]paroxetine as radioligand.

Sequence of Sodium-dependent serotonin transporter (P31652 whole entry): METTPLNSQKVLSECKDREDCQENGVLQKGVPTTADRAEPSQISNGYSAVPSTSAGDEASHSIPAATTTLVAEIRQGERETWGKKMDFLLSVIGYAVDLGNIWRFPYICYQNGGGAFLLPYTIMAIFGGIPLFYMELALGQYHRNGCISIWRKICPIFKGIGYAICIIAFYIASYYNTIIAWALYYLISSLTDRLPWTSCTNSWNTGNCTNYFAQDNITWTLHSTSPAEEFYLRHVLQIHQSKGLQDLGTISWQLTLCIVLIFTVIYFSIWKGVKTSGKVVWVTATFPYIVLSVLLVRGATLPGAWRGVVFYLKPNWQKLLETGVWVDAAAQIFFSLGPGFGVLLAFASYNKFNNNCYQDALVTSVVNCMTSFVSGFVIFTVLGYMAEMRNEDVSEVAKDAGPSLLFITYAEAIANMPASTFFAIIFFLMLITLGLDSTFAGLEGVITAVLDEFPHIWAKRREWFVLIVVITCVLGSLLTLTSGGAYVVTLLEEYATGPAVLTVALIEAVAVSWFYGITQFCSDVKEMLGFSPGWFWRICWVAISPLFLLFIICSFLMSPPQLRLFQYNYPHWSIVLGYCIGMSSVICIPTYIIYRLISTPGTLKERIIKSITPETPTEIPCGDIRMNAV

Regarding `COC(=O)[C@H]1[C@@H](c2ccc(F)cc2)C[C@H]2CC[C@H]1N2C`, the IC50 (usually the concentration that inhibits the measured activity by half) came to 479 nM.
In turn, `COC(=O)[C@@H]1C2CC[C@H](C[C@@H]1c1ccc(I)cc1)N2C` displayed an IC50 of 3.78 nM. Compared with the last compound, the IC50 is about 130-fold lower.
